We go through three molecules from US20100151486A1, “OSTEOPONTIN FUNCTIONAL EPITOPES, MONOCLONAL ANTIBODIES AGAINST THE EPITOPES AND USES THEREOF” (SHANGHAI NATIONAL ENGINEERING RESEARCH CENTER OF A, priority 2007, published 2010).

The subject of test [1] is chicken embryo chorioallantoic membrane (CAM). The test is described as follows: Chicken embryo chorioallantoic membrane (CAM) angiogenesis assay. Type of test: in vivo. As to conditions: human OPN 250 ng; P<0.01. On the procedure: The Leghorn chicken embryos were purchased from the farm with a fertilization rate of >90%. The 8-day old chicken embryos were selected. After sterilization, a small hole was drilled in the center of the top air chamber of the embryo with a lancet, the surrounding shell with the inner membrane was removed with caution to create an opening of 1 cm×1 cm. Then the following analytes/gelatin sponge were added to the CAM surface: i) PBS; ii) HOPN; iii) human OPN (250 ng); iv) human OPN (250 ng)+the irrelevant antibody as control (1 μg); v) human OPN (250 ng)+the murine anti-OPN antibody 1A12 (1 μg); vi) human OPN (250 ng)+the murine-human chimeric anti-OPN antibody c1A12 (1 μg); vii) human OPN (250 ng)+the humanized anti-OPN antibody h1A1.2 (1 μg).
The analytes/gelatin sponge were added to the CAM surface, which was far away from the already-formed dense vascular network. […] The number of vessels within an area edging 2 mm from the edges of the carrier slide was counted under a dissecting microscope to study the angiogenesis using the “vascular index” (Ribatti, D., B. Nico, A. Vacca et al., The gelatin sponge-chorioallantoic membrane assay. Nat Protoc, 2006, 1 (1): 85-91). The number of vessel was counted at the same magnification under the dissecting microscope. The result in each sample group was expressed as “mean±standard deviation (x±S)”. […]

In test [2] the test system is human vascular endothelial cell (HUVEC). In words: HUVEC proliferation by 3H-TdR incorporation. Type of test: cell-based. As to conditions: M200+1% BSA+OPN; 24 hours. On the procedure: HUVEC cell proliferation was measured by the ^3H-TdR incorporation method to determine the protective effect of OPN on cell survival and the inhibitory effect of the anti-OPN antibodies on the OPN protection. Each well of a 96-well plate was inoculated with 2×10^4 HUVECs and cultured in a complete medium for 24 hours. The cells were then treated as following for 24 hours: […]
iv. M200+1% BSA+OPN+murine anti-OPN antibody 1A12 v. M200+1% , BSA+OPN+human-murine chimeric anti-OPN antibody c1A12 vi. M200+1% BSA+OPN+humanized anti-OPN antibody h1A12 vii. M200+1% BSA+OPN+irrelevant antibody
24 hours later, 1 uCi/well ^3H-thymidine was added and, after being incubated at 37° C. for 6 hours, washed once with PBS. The plate was treated with ice-cold 10% trichloroacetic acid/H2O at 4° C. for 10 min, and then washed for two times with, ice-cold ddH2O. Cytolysis was conducted by adding into each well 0.1 ml of 0.5 N NaOH, 0.5% SDS at room temperature for 10 min. After adding 0.2 ml of 0.5 N HCl and mixing, the cells were collected using a multiple cell collector.

Test [3] has as its target T1, human osteopontin (human OPN protein) (human, UniProt P10451 17-314, limits assumed).
T1 construct: The isoform follows from the 963 bp PCR fragment and is not otherwise stated; also called hOPN
The test is described as follows: Western blot on purified recombinant OPN.

The target in test [4] is T1, human osteopontin (human OPN protein). The test is described as follows: ELISA, plate coated with OPN 2 ug/ml, COS-1 supernatant, HRP-rabbit anti-human IgG. On the procedure: An ELISA plate was coated with 2 ug/ml OPN. The binding activity of the humanized antibody obtained from the transfection was detected by ELISA. […] The amino acid sequences of the h1A12HBb's and the h1A12Lb's variable regions were shown in FIG. 4, SEQ ID NO: 18 and SEQ ID NO: 19 show the nucleotide sequence and the amino acid sequence of h1A12Hb's variable region respectively. SEQ ID NO: 20 and SEQ ID NO: 21 show the nucleotide sequence and the amino acid sequence of h1A12Lb's variable region respectively. The genes of the humanized antibody's VH and VL (h1A12VHb/h1A12VLb) were synthesized respectively. […] Then, expression vectors of the light and the heavy chain were used to co-transfect the COS-1 cells. The antibody's antigen-binding activity was determined by ELISA. Specifically, an ELISA plate was coated with OPN protein (2 ug/ml) coated at 4° C. overnight, and was blocked with 2% BSA-PBS for 2 h at 37° C. […] HRP-rabbit anti-human IgG was added into the plate for binding reaction (incubated at 37° C. for 1 h).
For orientation: ELISA stands for enzyme-linked immunosorbent assay.

T1 sequence (P10451 17-314 limits assumed): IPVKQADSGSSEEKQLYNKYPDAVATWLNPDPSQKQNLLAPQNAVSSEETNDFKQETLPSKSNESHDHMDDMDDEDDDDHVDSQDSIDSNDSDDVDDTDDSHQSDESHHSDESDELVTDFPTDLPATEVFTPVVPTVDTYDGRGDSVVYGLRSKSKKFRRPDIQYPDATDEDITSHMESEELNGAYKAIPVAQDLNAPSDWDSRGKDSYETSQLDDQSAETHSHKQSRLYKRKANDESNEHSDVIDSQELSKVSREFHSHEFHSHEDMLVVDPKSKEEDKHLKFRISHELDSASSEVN

Turning to “OPN: human osteopontin protein expressed in Pichia yeast and purified (Example 3)”, the “angiogenesis in the chicken embryo's CAM in comparison with PBS” value in test [1] is reported as “significantly enhance”. In addition, in test [2], the “3H-TdR incorporation relative to the 1% BSA treatment group” value is recorded as 3.08±0.64 times.

B1: murine anti-human OPN monoclonal antibody 1A12 (antibody, V domains shown)
VH: QVQLEQSGPELVKPGASVKMSCKSSGYTFTTYVMHWVKQKPGQGLEWIGYINPYNDGSKYNEKFKGKATLTSDKSSNTAYMELSSLTSEDSAVYYCASHYGGSPAYWGQGTLVTVSA
VL: DILMTQTPLSLPVSLGDQASISCRSSQSLVHSNGNTYLHWYLQKPGQSPKLLIYKVSNRFSGVPDRFSGSGSGTDFTLKISRVEAEDLGVYFCSQSTHVPWTFGGGTKLEIKR
notes: Hybridoma antibody purified from mouse ascites on protein A. Mouse constant regions; also called mouse anti-hOPN mAb 1A12; anti-OPN mAb 1A12
On to B1, for which, in test [3], the binding result is recorded as “binds”.

B2: human-mouse chimeric anti-hOPN antibody c1A12 (antibody, human IgG1, kappa, V domains shown)
VH: B1 VH
VL: B1 VL
notes: Tested as COS-1 supernatant in the ELISA and as CHO-purified antibody in the cell assays; also called chimeric antibody c1A12
As for B2, the binding result in test [4] is on record as “binds”.
